In patent US10870647B2, “Imidazopyridine derivative, method for preparing same, and pharmaceutical composition containing same as active ingredient for preventing or treating cancer” (DAEGU-GYEONGBUK MEDICAL INNOVATION FOUNDATION, priority 2016, dated 2020) one finds remaining binding data, which are given here for three compounds.

Common to all, as to test: Kinase selectivity, scanMAX Kinase assay panel (DiscoverX), % control at 1 uM
Type in all cases: binding

The target of assay [1] is T1, scanMAX Kinase assay panel (Homo sapiens, UniProt O00141).
T1 construct: purchased DiscoverX
T1 sequence (O00141 1-431): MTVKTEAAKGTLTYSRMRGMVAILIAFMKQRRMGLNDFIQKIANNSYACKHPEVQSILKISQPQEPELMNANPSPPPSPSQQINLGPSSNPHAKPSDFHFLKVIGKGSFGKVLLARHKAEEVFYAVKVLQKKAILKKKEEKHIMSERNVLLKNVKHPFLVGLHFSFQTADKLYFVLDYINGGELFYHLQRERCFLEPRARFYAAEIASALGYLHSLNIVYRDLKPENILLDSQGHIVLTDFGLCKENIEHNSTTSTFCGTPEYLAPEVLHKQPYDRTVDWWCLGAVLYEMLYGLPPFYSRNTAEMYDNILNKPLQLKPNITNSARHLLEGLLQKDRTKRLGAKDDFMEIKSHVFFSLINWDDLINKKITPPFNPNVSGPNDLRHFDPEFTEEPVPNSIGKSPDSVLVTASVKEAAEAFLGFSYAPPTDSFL
As to conditions: SGK; 1 uM; read-out: Percent Control (%). The essentials: (§1)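 Compounds were tested at 1 uM in DMSO against each enzyme in the panel. Percent control was calculated as (compound − positive control)/(negative control − positive control) × 100, and a compound was scored active on a kinase when this value fell below 35.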

Assay [2] has as its target T2, scanMAX Kinase assay panel (Homo sapiens, UniProt O60331).
T2 construct: purchased DiscoverX
Conditions: PIP5K1C; 1 uM; read-out: Percent Control (%). The gist of the method: as §1

In assay [3] the target is T3, scanMAX Kinase assay panel (Homo sapiens, UniProt P08631).
T3 construct: purchased DiscoverX
Conditions: HCK; 1 uM; read-out: Percent Control (%). The essentials:
as §1

Assay [4] concerns the target T4, scanMAX Kinase assay panel (Homo sapiens, UniProt P29597).
T4 construct: purchased DiscoverX
As to conditions: 1 uM, read-out: Percent Control (%). The essentials: as §1

For assay [5], the target named is T5, scanMAX Kinase assay panel (Homo sapiens, UniProt P42338).
T5 construct: purchased DiscoverX
Conditions: PIK3CB; 1 uM; read-out: Percent Control (%). The gist of the method: as §1

Assay [6] addresses T6, scanMAX Kinase assay panel (Homo sapiens, UniProt P78368).
T6 construct: purchased DiscoverX
As to conditions: CSNK1G2; 1 uM; read-out: Percent Control (%). The essentials: as §1

Assay [7] addresses T7, scanMAX Kinase assay panel (Homo sapiens, UniProt Q13976).
T7 construct: purchased DiscoverX
T7 sequence (Q13976 1-671): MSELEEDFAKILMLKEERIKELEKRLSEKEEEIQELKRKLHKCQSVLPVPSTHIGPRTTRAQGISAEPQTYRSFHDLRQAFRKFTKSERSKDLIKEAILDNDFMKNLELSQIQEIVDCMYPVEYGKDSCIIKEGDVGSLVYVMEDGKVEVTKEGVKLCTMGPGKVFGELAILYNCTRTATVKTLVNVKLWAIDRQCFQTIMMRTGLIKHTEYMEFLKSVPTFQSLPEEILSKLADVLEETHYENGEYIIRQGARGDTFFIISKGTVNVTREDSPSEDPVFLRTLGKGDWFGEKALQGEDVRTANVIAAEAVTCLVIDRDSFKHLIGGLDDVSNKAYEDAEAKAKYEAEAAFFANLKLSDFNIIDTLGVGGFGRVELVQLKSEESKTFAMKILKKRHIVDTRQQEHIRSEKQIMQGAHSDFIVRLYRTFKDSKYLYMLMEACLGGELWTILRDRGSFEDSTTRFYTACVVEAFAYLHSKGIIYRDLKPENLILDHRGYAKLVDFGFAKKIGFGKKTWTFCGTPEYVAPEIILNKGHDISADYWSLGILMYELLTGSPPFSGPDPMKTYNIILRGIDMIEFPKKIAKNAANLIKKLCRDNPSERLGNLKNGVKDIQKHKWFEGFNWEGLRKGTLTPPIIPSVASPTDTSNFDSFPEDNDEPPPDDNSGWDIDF
Conditions: PRKG1; 1 uM; read-out: Percent Control (%). The essentials:
as §1

Assay [8] addresses T8, scanMAX Kinase assay panel (Homo sapiens, UniProt Q15139).
T8 construct: purchased DiscoverX
T8 sequence (Q15139 1-912): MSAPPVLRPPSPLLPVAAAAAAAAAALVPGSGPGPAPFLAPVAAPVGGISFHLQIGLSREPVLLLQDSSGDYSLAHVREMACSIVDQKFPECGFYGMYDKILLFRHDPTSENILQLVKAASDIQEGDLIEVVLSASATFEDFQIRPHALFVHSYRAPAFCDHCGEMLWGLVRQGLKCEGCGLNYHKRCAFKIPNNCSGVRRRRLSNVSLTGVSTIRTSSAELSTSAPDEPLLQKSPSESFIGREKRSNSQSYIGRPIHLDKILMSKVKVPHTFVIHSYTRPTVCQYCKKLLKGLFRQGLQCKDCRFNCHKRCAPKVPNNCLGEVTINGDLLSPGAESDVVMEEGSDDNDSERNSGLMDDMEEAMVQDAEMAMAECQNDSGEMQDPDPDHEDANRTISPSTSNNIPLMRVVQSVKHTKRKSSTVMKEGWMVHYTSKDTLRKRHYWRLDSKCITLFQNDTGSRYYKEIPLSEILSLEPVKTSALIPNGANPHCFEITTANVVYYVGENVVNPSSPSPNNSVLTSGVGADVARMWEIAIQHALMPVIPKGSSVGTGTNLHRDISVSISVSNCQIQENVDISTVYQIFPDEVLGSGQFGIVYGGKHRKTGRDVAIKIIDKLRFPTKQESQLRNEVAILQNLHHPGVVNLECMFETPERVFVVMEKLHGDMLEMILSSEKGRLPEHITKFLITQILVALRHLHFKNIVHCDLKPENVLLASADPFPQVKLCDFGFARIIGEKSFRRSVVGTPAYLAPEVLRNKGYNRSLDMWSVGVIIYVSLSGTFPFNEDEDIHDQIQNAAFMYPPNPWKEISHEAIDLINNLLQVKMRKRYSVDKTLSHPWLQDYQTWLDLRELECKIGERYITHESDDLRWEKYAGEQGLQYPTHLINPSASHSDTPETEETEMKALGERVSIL
As to conditions: PRKD1; 1 uM; read-out: Percent Control (%). The essentials: as §1

Read-outs that look alike come from different tables or passages of the source.

T2 sequence (O60331 whole entry): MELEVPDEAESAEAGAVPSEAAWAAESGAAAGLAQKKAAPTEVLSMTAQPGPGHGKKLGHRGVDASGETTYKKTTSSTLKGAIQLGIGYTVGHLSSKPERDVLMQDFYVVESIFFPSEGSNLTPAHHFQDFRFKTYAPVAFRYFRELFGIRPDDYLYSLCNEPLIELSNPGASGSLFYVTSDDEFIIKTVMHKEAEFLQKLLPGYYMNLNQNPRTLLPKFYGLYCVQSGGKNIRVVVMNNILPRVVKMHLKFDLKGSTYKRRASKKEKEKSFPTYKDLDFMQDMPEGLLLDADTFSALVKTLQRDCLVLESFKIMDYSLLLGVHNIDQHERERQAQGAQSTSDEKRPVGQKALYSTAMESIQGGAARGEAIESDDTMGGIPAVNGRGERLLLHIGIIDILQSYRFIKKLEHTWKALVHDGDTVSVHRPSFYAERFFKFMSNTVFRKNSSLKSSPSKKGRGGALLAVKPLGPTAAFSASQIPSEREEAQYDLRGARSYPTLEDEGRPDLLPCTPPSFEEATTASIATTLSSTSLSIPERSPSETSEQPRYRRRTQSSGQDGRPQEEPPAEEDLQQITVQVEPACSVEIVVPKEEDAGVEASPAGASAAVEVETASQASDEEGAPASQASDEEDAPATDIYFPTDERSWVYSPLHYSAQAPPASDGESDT
T3 sequence (P08631 whole entry): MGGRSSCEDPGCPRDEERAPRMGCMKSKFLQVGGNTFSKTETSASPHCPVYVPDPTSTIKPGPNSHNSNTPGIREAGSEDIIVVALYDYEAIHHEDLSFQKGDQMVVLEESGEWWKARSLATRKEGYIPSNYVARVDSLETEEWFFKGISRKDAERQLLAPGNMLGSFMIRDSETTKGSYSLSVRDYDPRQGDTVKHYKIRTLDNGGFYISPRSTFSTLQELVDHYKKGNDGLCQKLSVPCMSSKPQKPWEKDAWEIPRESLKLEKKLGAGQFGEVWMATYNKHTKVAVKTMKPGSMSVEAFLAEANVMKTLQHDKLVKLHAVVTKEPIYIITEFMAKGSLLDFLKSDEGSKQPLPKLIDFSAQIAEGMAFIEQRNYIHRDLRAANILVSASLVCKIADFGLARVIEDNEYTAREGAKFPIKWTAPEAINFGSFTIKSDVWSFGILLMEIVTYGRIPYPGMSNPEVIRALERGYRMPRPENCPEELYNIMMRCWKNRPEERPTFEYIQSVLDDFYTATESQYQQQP
T4 sequence (P29597 whole entry): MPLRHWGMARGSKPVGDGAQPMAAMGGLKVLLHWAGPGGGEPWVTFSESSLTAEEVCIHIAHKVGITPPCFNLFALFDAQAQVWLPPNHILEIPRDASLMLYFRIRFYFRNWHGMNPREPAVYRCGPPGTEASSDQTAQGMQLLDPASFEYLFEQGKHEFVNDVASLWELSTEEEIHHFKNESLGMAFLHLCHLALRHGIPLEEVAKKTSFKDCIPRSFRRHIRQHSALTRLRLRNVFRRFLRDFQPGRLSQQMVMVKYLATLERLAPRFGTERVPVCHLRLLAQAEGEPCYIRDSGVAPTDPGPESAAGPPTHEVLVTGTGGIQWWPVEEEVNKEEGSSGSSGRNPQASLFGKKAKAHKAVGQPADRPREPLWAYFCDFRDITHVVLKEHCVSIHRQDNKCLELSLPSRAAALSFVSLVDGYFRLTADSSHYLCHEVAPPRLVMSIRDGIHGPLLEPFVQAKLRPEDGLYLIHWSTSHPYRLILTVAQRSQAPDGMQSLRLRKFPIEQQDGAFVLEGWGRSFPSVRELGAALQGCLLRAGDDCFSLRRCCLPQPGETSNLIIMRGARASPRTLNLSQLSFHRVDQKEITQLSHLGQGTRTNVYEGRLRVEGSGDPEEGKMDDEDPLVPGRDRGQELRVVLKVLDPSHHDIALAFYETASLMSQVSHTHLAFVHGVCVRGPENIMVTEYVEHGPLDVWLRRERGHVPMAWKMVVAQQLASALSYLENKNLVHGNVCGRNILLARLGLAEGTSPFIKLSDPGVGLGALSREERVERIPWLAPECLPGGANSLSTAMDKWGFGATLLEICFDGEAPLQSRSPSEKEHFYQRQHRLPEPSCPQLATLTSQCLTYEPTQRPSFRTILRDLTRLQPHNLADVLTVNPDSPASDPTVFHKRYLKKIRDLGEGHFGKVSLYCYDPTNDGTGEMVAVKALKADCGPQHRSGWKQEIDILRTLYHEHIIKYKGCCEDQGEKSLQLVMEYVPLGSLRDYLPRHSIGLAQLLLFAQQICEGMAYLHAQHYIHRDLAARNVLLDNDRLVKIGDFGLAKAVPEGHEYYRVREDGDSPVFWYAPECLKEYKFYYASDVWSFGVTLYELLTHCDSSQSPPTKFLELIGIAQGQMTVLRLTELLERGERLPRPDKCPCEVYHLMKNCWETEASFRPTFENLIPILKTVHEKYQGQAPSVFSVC
T6 sequence (P78368 whole entry): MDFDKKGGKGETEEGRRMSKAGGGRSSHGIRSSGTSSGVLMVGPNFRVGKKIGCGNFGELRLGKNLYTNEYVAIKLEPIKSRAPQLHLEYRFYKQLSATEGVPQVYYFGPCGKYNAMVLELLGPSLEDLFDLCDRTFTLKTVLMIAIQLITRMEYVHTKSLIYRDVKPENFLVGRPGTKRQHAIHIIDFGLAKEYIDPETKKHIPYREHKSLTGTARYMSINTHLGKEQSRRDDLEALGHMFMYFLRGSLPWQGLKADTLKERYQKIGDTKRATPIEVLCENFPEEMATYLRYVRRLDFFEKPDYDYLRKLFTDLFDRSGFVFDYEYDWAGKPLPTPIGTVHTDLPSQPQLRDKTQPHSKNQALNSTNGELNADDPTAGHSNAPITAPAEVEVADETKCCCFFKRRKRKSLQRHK
T5 sequence (P42338 whole entry): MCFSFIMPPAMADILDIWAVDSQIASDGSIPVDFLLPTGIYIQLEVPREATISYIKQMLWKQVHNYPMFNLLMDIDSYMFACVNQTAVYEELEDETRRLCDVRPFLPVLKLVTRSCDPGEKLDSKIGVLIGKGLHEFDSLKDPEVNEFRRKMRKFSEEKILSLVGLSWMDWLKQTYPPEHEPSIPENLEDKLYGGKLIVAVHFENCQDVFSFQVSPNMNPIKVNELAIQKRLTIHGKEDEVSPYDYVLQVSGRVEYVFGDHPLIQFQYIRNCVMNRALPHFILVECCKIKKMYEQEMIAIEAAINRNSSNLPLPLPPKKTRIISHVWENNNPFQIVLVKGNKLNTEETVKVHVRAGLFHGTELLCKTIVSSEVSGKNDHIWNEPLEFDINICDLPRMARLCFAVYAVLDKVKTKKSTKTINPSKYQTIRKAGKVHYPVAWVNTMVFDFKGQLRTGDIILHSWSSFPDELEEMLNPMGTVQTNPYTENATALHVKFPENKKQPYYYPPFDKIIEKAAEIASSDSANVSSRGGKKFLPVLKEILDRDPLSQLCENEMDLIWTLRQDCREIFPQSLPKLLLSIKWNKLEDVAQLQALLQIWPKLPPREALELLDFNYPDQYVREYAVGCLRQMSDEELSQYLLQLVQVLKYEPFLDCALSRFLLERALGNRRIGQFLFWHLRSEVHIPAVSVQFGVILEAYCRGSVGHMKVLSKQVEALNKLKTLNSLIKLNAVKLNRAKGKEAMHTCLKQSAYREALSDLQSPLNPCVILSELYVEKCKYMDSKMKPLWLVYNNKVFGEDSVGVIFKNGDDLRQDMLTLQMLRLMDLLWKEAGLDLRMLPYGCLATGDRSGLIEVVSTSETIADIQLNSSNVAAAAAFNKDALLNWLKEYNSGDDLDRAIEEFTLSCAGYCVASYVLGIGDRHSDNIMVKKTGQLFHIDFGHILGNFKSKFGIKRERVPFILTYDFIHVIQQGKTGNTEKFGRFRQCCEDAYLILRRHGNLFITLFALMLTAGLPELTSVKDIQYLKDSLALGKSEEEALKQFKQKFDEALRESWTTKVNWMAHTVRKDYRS

Consider `Cc1ccc(C(=O)Nc2ccc(CN3CCN(C)CC3)c(C(F)(F)F)c2)cc1C#Cc1cnc2c(Nc3cnn(C)c3)cccn12` [Example 1, 4-methyl-3-((8-((1-methyl-1H-pyrazol-4-yl)amino)imidazo[1,2-a]pyridin-3-yl)ethynyl)-N-(4-((4-methylpiperazin-1-yl)methyl)-3-(trifluoromethyl)phenyl)benzamide], for which the remaining binding at 1 µM in assay [1] stood at 93%; in assay [2] it was 88%; in assay [3], 0%; in assay [4] (TYK2 (JH1domain-catalytic)), 9%; in assay [4] (TYK2 (JH2domain-pseudokinase)), 100%; in assay [5] it was 92%. In addition, the values for the remaining binding at 1 µM in assay [6], in assay [7] and in assay [8] were 91%, 94% and 54%, respectively.
`Cc1ccc(NC(=O)C2(C(=O)Nc3ccc(F)cc3)CC2)cc1C#Cc1cnc2c(Nc3cnn(C(C)C)c3)cccn12` [Example 78]: the remaining binding at 1 µM in assay [1] was 96%; in assay [2], 92%; in assay [3], 71%; in assay [4] (TYK2 (JH1domain-catalytic)), 97%; in assay [4] (TYK2 (JH2domain-pseudokinase)), 100%; in assay [5], 100%. The remaining binding at 1 µM in assay [6], in assay [7] and in assay [8] was 100% throughout.
`Cc1cn(-c2cc(NC(=O)c3ccc(C)c(C#Cc4cnc5c(Nc6cnn(C)c6)cccn45)c3)cc(C(F)(F)F)c2)cn1` [Example 12, 4-methyl-N-(3-(4-methyl-1H-imidazol-1-yl)-5-(trifluoromethyl)phenyl)-3-((8-((1-methyl-1H-pyrazol-4-yl)amino)imidazo[1,2-a]pyridin-3-yl)ethynyl)benzamide]: the remaining binding at 1 µM amounted to 100% in assay [1]; 71% in assay [2]; 1% in assay [3]; 96% in assay [4] (TYK2 (JH1domain-catalytic)); 100% in assay [4] (TYK2 (JH2domain-pseudokinase)); 100% in assay [5]. In addition, the remaining binding at 1 µM in assay [6] was determined as 94%; in assay [7], 86%; in assay [8], 94%.
